Twelve molecules from PubChem BioAssay (NCI) can be followed below.

Among the test systems are A498 renal; CCRF-CEM leukemia; KM12 colon; LOX IMVI melanoma; MCF7 breast; NCI-H23 lung; NCI-H460 lung; OVCAR-8 ovarian; SF-268 CNS; SK-OV-3 ovarian; SNB-19 CNS; U251 CNS.
Holding throughout (experiment): growth of human tumour cells (NCI), 48 h

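Assay format: 96-well plates, 48-hour exposure. At the TGI there is no net growth.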

As to `Clc1nc(Cl)c(Cl)c(Cl)n1`, the TGI stood at 34.6 µM in the test with A498 renal; 15.2 µM with CCRF-CEM leukemia; 28.9 µM with KM12 colon; 27.3 µM with LOX IMVI melanoma; 37.9 µM in the test on MCF7 breast; 40.3 µM with NCI-H23 lung. Further, the TGI in the test with NCI-H460 lung was found to be 51.9 µM; with OVCAR-8 ovarian it was 80.2 µM; in the test on SF-268 CNS it was 56.9 µM; with SK-OV-3 ovarian it was 30.3 µM; with SNB-19 CNS, 38.8 µM; with U251 CNS it was 36.1 µM.
For the molecule `CCCCCCCCCCCCCCCCSCC(COC)COP(=O)([O-])OCC[N+](C)(C)C` (centres undefined), the TGI was determined as 19.1 µM with A498 renal; 10.1 µM in the test with CCRF-CEM leukemia; 2.45 µM in the test on KM12 colon; 17.4 µM with LOX IMVI melanoma; 26.7 µM in the test on MCF7 breast; 28.2 µM in the test on NCI-H23 lung. Moreover, the TGI turned out to be 6.2 µM in the test with NCI-H460 lung; 22.3 µM with OVCAR-8 ovarian; 20.5 µM with SF-268 CNS; 28.6 µM in the test on SK-OV-3 ovarian; 9.6 µM in the test on SNB-19 CNS; 4.37 µM in the test with U251 CNS.
With `C=C1C[C@@H](O)C[C@@]2(C)C[C@@H]3OC(=O)C(=C)[C@@H]3C[C@H]12`, the TGI is 36.8 µM in the test on A498 renal; greater than 36.1 µM in the test on CCRF-CEM leukemia; 28.6 µM in the test with KM12 colon; 21.5 µM in the test on LOX IMVI melanoma; 24.8 µM in the test on MCF7 breast; 35.4 µM in the test with NCI-H23 lung. The TGI is greater than 58.6 µM with NCI-H460 lung; 46.6 µM with OVCAR-8 ovarian; 14.4 µM in the test on SF-268 CNS; greater than 81.9 µM in the test on SK-OV-3 ovarian; 26.4 µM with SNB-19 CNS; 39.9 µM in the test on U251 CNS.
`C=C1C(=O)OC2(C)C3CCC(C3)C12` (centres undefined): the TGI in the test with CCRF-CEM leukemia, with KM12 colon, with LOX IMVI melanoma, with NCI-H23 lung, in the test on NCI-H460 lung and in the test with OVCAR-8 ovarian was greater than 100 µM each time. Also, the TGI in the test on SF-268 CNS, in the test with SK-OV-3 ovarian, in the test with SNB-19 CNS and with U251 CNS was greater than 100 µM each time.
For the molecule `O=C1CC(=O)c2c(O)cc(O)c(c2O)-c2c(ccc(O)c2O)C2=CC(=O)c3c(O)cc(O)c(c3O2)-c2c1ccc(O)c2O` (tested in a mixture with another compound), the TGI with A498 renal, with CCRF-CEM leukemia, in the test with LOX IMVI melanoma, in the test on MCF7 breast, in the test on NCI-H23 lung and in the test on NCI-H460 lung was greater than 50 µM throughout. The TGI in the test on OVCAR-8 ovarian, with SF-268 CNS, in the test on SK-OV-3 ovarian, in the test with SNB-19 CNS and with U251 CNS was greater than 50 µM each time.
Take `Cc1c2c(cc3c1[nH]c1ccccc13)C=NCC2`: the TGI with A498 renal was found to be 40.3 µM; with CCRF-CEM leukemia, 30.5 µM; with KM12 colon it was 27.8 µM; with LOX IMVI melanoma it was 36.6 µM; with MCF7 breast it was 8.7 µM; with NCI-H23 lung it was 82.4 µM. Further, the TGI is 27.7 µM with NCI-H460 lung; 36.4 µM in the test on OVCAR-8 ovarian; 49.6 µM in the test on SF-268 CNS; 97.2 µM in the test with SK-OV-3 ovarian; 45.8 µM in the test on SNB-19 CNS; 47.3 µM in the test on U251 CNS.
With `CCOC(=O)c1sc2nc(SC)nc3c2c1NC(=O)CN3c1cccc(F)c1`, the TGI in the test with A498 renal was 43.1 µM; with KM12 colon, greater than 100 µM; in the test on LOX IMVI melanoma, 38.8 µM; in the test with MCF7 breast, greater than 100 µM; with NCI-H23 lung, greater than 100 µM; in the test with NCI-H460 lung it was greater than 100 µM. For the same molecule, the TGI is 30.6 µM with OVCAR-8 ovarian; 28.1 µM in the test on SF-268 CNS; 37.4 µM in the test on SK-OV-3 ovarian; 47.9 µM in the test on SNB-19 CNS; 31.9 µM in the test with U251 CNS.
Take `Cc1c(C(=O)N2CCN(c3ccc([N+](=O)[O-])cc3)CC2)[n+](=O)c2cc(Cl)c(Cl)cc2n1[O-]`: the TGI in the test with A498 renal was 23.1 µM; with CCRF-CEM leukemia, greater than 100 µM; in the test with KM12 colon it was greater than 100 µM; in the test on LOX IMVI melanoma, greater than 100 µM; in the test with MCF7 breast, 33.2 µM; with NCI-H23 lung, 32 µM. For the same molecule, the TGI in the test on NCI-H460 lung was determined as 56.7 µM; with OVCAR-8 ovarian it was 33 µM; in the test with SF-268 CNS, 35.2 µM; in the test on SK-OV-3 ovarian, 29.5 µM; in the test on SNB-19 CNS, 42.1 µM; in the test on U251 CNS it was 61.5 µM.
`COC(=O)C1=C(C)NC2(O)C=CC(=O)C3C(=O)N(c4ccccc4)C(=O)C132` (centres undefined): the TGI in the test on A498 renal, in the test on CCRF-CEM leukemia, in the test with KM12 colon, with LOX IMVI melanoma, in the test on MCF7 breast and in the test with NCI-H23 lung was greater than 100 µM each time. The TGI in the test on NCI-H460 lung, in the test on OVCAR-8 ovarian, with SF-268 CNS, in the test on SK-OV-3 ovarian, with SNB-19 CNS and with U251 CNS was greater than 100 µM throughout.
For `CCOc1cc(NC(C)=O)ccc1C(=O)NN1C(=O)C(Oc2ccccc2)C1c1ccccc1` (centres undefined), the TGI in the test with A498 renal, in the test on CCRF-CEM leukemia, with KM12 colon, with LOX IMVI melanoma, in the test with MCF7 breast and in the test on NCI-H23 lung was greater than 100 µM in each case. Besides, the TGI in the test on NCI-H460 lung, in the test with OVCAR-8 ovarian, in the test on SF-268 CNS and in the test with SK-OV-3 ovarian was greater than 100 µM throughout.
Turning to `Clc1ccc(Cc2nc3ccc(CCN4CCN(c5ccccc5)CC4)cc3[nH]2)cc1`, the TGI in the test with A498 renal is 32.5 µM; in the test with CCRF-CEM leukemia it was greater than 100 µM; in the test on KM12 colon, 24.1 µM; with LOX IMVI melanoma, 27 µM; with MCF7 breast, 37.6 µM; with NCI-H23 lung, 32.5 µM. Moreover, the TGI with NCI-H460 lung is 27.8 µM; with OVCAR-8 ovarian it was 36.3 µM; in the test with SF-268 CNS it was greater than 100 µM; in the test on SK-OV-3 ovarian, 38.4 µM; in the test with SNB-19 CNS, 41.6 µM; in the test with U251 CNS, 26.5 µM.
For `Cc1cc(O)c2c(c1O)C(=O)C13C(=C2O)C(=O)C2C(O)C1C1C(O)C3C(=O)C3=C(O)c4c(O)cc(C)c(O)c4C(=O)C321` (centres undefined), the TGI was 0.253 µM with A498 renal; 0.613 µM in the test with CCRF-CEM leukemia; 10.7 µM with KM12 colon; 1.46 µM with LOX IMVI melanoma; 1.59 µM in the test on OVCAR-8 ovarian; 0.458 µM with SF-268 CNS. Moreover, the TGI in the test with SK-OV-3 ovarian stood at 0.319 µM; in the test with U251 CNS, 0.188 µM.
